Reference: ChEMBL document CHEMBL1201862, “PubChem BioAssay data set” (2004)
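Five compound concentrations were applied to cells in 96-well plates for 48 hours; endpoints were derived by simple linear interpolation of the resulting dose-response curve. GI50 is the concentration that inhibits growth by half.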 Activity calls are given as the source filed them. Rule as the data show it: active = GI50 up to about 1.1 µM and inactive = higher.

How the values were obtained:
Assay in all cases: growth of human tumour cells (NCI), 48 h
ACHN = system: ACHN
KM12 = system: KM12
NCI-H522 = system: NCI-H522
UO-31 = system: UO-31
PC-3 = system: PC-3
SN12C = system: SN12C
CCRF-CEM = system: CCRF-CEM
OVCAR-3 = system: OVCAR-3
IGROV-1 = system: IGROV-1
SF-295 = system: SF-295
OVCAR-4 = system: OVCAR-4
LOX IMVI = system: LOX IMVI
EKVX = system: EKVX
T47D = system: T47D
SK-MEL-2 = system: SK-MEL-2
MCF7 = system: MCF7
U-251 = system: U-251
HOP-92 = system: HOP-92
Malme-3M = system: Malme-3M
UACC-257 = system: UACC-257

Structure (SMILES) | GI50 (ACHN) | GI50 (KM12) | GI50 (NCI-H522) | GI50 (UO-31) | GI50 (PC-3) | GI50 (SN12C) | GI50 (CCRF-CEM) | GI50 (OVCAR-3) | GI50 (IGROV-1) | GI50 (SF-295) | GI50 (OVCAR-4) | GI50 (LOX IMVI) | GI50 (EKVX) | GI50 (T47D) | GI50 (SK-MEL-2) | GI50 (MCF7) | GI50 (U-251) | GI50 (HOP-92) | GI50 (Malme-3M) | GI50 (UACC-257)
CNC(=O)C1(C#N)C(c2ccccc2)C(C#N)(C(=O)NC)C1c1ccccc1 (stereo unspecified) | > 100 µM (inactive) | > 100 µM (inactive) | > 100 µM (inactive) | > 100 µM (inactive) | > 100 µM (inactive) | > 100 µM (inactive) | > 100 µM (inactive) | > 100 µM (inactive) | > 100 µM (inactive) | > 100 µM (inactive) | > 100 µM (inactive) | > 100 µM (inactive) | > 100 µM (inactive) | > 100 µM (inactive) | > 100 µM (inactive) | > 100 µM (inactive) | > 100 µM (inactive) | > 100 µM (inactive) | – | –
CC1(C)N=c2c(ncn2CCCO)=C(C(N)=O)N1 | > 100 µM (inactive) | > 100 µM (inactive) | > 100 µM (inactive) | – | > 100 µM (inactive) | > 100 µM (inactive) | > 100 µM (inactive) | > 100 µM (inactive) | > 100 µM (inactive) | > 100 µM (inactive) | > 100 µM (inactive) | > 100 µM (inactive) | > 100 µM (inactive) | > 100 µM (inactive) | – | > 100 µM (inactive) | > 100 µM (inactive) | > 100 µM (inactive) | > 100 µM (inactive) | > 100 µM (inactive)
CN(Cc1cccc2ccsc12)/N=C\c1ccc(Cl)cc1 | > 100 µM (inactive) | 58.5 µM (inactive) | 51.3 µM (inactive) | 78.3 µM (inactive) | > 100 µM (inactive) | > 100 µM (inactive) | 31.3 µM (inactive) | 10.6 µM (inactive) | > 100 µM (inactive) | 30.9 µM (inactive) | 46.1 µM (inactive) | > 100 µM (inactive) | 50.4 µM (inactive) | 49.5 µM (inactive) | – | 32.7 µM (inactive) | > 100 µM (inactive) | > 100 µM (inactive) | > 100 µM (inactive) | 18.8 µM (inactive)
CCN(CCCl)c1cc(CN(C)C)cc(NC(=O)c2cc(C(=O)Nc3cc(CN(C)C)cc(N(CC)CCCl)c3)n(C)n2)c1 | 0.0828 µM (active) | 0.236 µM (active) | 0.115 µM (active) | 3.06 µM (inactive) | 0.164 µM (active) | 0.3 µM (active) | < 0.01 µM (active) | – | 0.136 µM (active) | 0.78 µM (active) | 0.485 µM (active) | 0.0685 µM (active) | – | 0.508 µM (active) | 1.55 µM (inactive) | < 0.01 µM (active) | 0.0923 µM (active) | 1.11 µM (active) | 1.49 µM (inactive) | 1.37 µM (inactive)
Cc1cccc(NC(=O)CC(=O)N2N=C(N3c4ccccc4Sc4ccccc43)CC2c2ccccc2)c1 (stereo unspecified) | > 100 µM (inactive) | > 100 µM (inactive) | > 100 µM (inactive) | > 100 µM (inactive) | > 100 µM (inactive) | > 100 µM (inactive) | > 100 µM (inactive) | > 100 µM (inactive) | > 100 µM (inactive) | > 100 µM (inactive) | > 100 µM (inactive) | – | > 100 µM (inactive) | > 100 µM (inactive) | > 100 µM (inactive) | > 100 µM (inactive) | > 100 µM (inactive) | > 100 µM (inactive) | – | > 100 µM (inactive)
Cc1cc(OCc2nnc3n2S(=O)(=O)c2ccccc2N3C)ccc1Cl | 19.9 µM (inactive) | > 100 µM (inactive) | 6.79 µM (inactive) | 58.3 µM (inactive) | 95.5 µM (inactive) | 32.4 µM (inactive) | 15.7 µM (inactive) | 19.5 µM (inactive) | 22.9 µM (inactive) | 18.8 µM (inactive) | 8 µM (inactive) | 33.7 µM (inactive) | 33.1 µM (inactive) | 18.5 µM (inactive) | > 100 µM (inactive) | 89.7 µM (inactive) | 18.6 µM (inactive) | 16.1 µM (inactive) | – | 61 µM (inactive)
Oc1cc(O)cc(-c2nc3cc(F)ccc3s2)c1 | 24.7 µM (inactive) | 20.4 µM (inactive) | 18.7 µM (inactive) | 24 µM (inactive) | 25.1 µM (inactive) | 29.4 µM (inactive) | 27.5 µM (inactive) | 22.6 µM (inactive) | 27.7 µM (inactive) | 17.8 µM (inactive) | 18.5 µM (inactive) | 18.5 µM (inactive) | – | 17.5 µM (inactive) | 22.7 µM (inactive) | 20.3 µM (inactive) | 22.8 µM (inactive) | – | 31.6 µM (inactive) | 16.4 µM (inactive)
COc1cc2c(cc1OC)CCc1cc(OC)c(OC)cc1CC2 | > 100 µM (inactive) | > 100 µM (inactive) | – | > 100 µM (inactive) | > 100 µM (inactive) | > 100 µM (inactive) | > 100 µM (inactive) | > 100 µM (inactive) | > 100 µM (inactive) | > 100 µM (inactive) | > 100 µM (inactive) | > 100 µM (inactive) | > 100 µM (inactive) | 31.3 µM (inactive) | > 100 µM (inactive) | > 100 µM (inactive) | > 100 µM (inactive) | > 100 µM (inactive) | > 100 µM (inactive) | > 100 µM (inactive)
COc1cc(C)c(S(=O)(=O)N(CCCN)OCCCN)c(C)c1C | 49.4 µM (inactive) | 40.8 µM (inactive) | 22 µM (inactive) | 41.5 µM (inactive) | 25.4 µM (inactive) | 57 µM (inactive) | 41.2 µM (inactive) | 61.9 µM (inactive) | 20.2 µM (inactive) | 31.3 µM (inactive) | > 100 µM (inactive) | 27.8 µM (inactive) | 31.8 µM (inactive) | 29.8 µM (inactive) | 22.2 µM (inactive) | 19.4 µM (inactive) | 29.9 µM (inactive) | – | 21.9 µM (inactive) | 21.4 µM (inactive)
CN(C)C1C(CO)OC(n2cnc3c(N)ncnc32)C1O (stereo unspecified) | > 100 µM (inactive) | > 100 µM (inactive) | > 100 µM (inactive) | > 100 µM (inactive) | > 100 µM (inactive) | > 100 µM (inactive) | > 100 µM (inactive) | > 100 µM (inactive) | > 100 µM (inactive) | > 100 µM (inactive) | > 100 µM (inactive) | > 100 µM (inactive) | > 100 µM (inactive) | > 100 µM (inactive) | > 100 µM (inactive) | > 100 µM (inactive) | > 100 µM (inactive) | – | – | > 100 µM (inactive)
O=C(O)Cc1ccc([N+](=O)[O-])cc1[N+](=O)[O-] | > 100 µM (inactive) | > 100 µM (inactive) | > 100 µM (inactive) | > 100 µM (inactive) | > 100 µM (inactive) | > 100 µM (inactive) | > 100 µM (inactive) | > 100 µM (inactive) | > 100 µM (inactive) | > 100 µM (inactive) | > 100 µM (inactive) | > 100 µM (inactive) | > 100 µM (inactive) | > 100 µM (inactive) | > 100 µM (inactive) | > 100 µM (inactive) | > 100 µM (inactive) | – | > 100 µM (inactive) | > 100 µM (inactive)
COc1cc(C(=O)/C=C/c2ccc(OCC#N)cc2)cc(OC)c1OC | 23.5 µM (inactive) | 16 µM (inactive) | 17.3 µM (inactive) | 17.6 µM (inactive) | 18.7 µM (inactive) | 18.9 µM (inactive) | 19.4 µM (inactive) | 22.2 µM (inactive) | 38.4 µM (inactive) | 46.2 µM (inactive) | 37.4 µM (inactive) | – | 50.8 µM (inactive) | 17.3 µM (inactive) | – | 9.02 µM (inactive) | 18 µM (inactive) | 17 µM (inactive) | 17.4 µM (inactive) | 34 µM (inactive)
N#Cc1c(NC(=S)Nc2ccccc2)sc2c1CCCC2 | > 100 µM (inactive) | > 100 µM (inactive) | > 100 µM (inactive) | > 100 µM (inactive) | > 100 µM (inactive) | > 100 µM (inactive) | – | > 100 µM (inactive) | > 100 µM (inactive) | > 100 µM (inactive) | > 100 µM (inactive) | > 100 µM (inactive) | > 100 µM (inactive) | > 100 µM (inactive) | > 100 µM (inactive) | > 100 µM (inactive) | > 100 µM (inactive) | – | > 100 µM (inactive) | > 100 µM (inactive)
Cc1nc2ccc(NC3OC(CO)C(O)C(O)C3O)cc2c(=O)n1-c1ccccc1 (stereo unspecified) | > 100 µM (inactive) | 92.7 µM (inactive) | > 100 µM (inactive) | > 100 µM (inactive) | > 100 µM (inactive) | > 100 µM (inactive) | – | > 100 µM (inactive) | > 100 µM (inactive) | > 100 µM (inactive) | > 100 µM (inactive) | > 100 µM (inactive) | > 100 µM (inactive) | > 100 µM (inactive) | > 100 µM (inactive) | > 100 µM (inactive) | > 100 µM (inactive) | – | > 100 µM (inactive) | > 100 µM (inactive)
Nc1ccn(C2OC(COP(=O)(O)O)C(O)C2O)c(=O)n1 (stereo unspecified) | 1.21 µM (inactive) | > 100 µM (inactive) | 20.2 µM (inactive) | 6.98 µM (inactive) | > 100 µM (inactive) | 7.89 µM (inactive) | < 0.01 µM (active) | > 100 µM (inactive) | 40.7 µM (inactive) | 33 µM (inactive) | > 100 µM (inactive) | 3.08 µM (inactive) | > 100 µM (inactive) | 42 µM (inactive) | > 100 µM (inactive) | 1.31 µM (inactive) | 14.3 µM (inactive) | 17.8 µM (inactive) | – | > 63.4 µM (inactive)
